Columns and labels:
[1] = biological target: RNA-directed RNA polymerase (Hepacivirus hominis, UniProt O39930); experiment: Inhibitory activity against NS5B polymerase of hepatitis C virus
[2] = tested on: Hepatitis C virus; experiment: Inhibitory activity against HCV RNA replication; assay type: functional, organism-based, Hepacivirus hominis
[3] = biological target: Genome polyprotein (Human poliovirus 1 Mahoney, UniProt P03300); experiment: Inhibitory activity against polio virus RNA polymerase
[4] = biological target: RNA-directed RNA polymerase (Hepacivirus hominis) (UniProt O39930); experiment: Inhibitory activity against NS5B polymerase of hepatitis C virus at 7 uM concentration; (Range = 13-30)
RNA-directed RNA polymerase (Hepacivirus hominis), sequence (O39930 1-591): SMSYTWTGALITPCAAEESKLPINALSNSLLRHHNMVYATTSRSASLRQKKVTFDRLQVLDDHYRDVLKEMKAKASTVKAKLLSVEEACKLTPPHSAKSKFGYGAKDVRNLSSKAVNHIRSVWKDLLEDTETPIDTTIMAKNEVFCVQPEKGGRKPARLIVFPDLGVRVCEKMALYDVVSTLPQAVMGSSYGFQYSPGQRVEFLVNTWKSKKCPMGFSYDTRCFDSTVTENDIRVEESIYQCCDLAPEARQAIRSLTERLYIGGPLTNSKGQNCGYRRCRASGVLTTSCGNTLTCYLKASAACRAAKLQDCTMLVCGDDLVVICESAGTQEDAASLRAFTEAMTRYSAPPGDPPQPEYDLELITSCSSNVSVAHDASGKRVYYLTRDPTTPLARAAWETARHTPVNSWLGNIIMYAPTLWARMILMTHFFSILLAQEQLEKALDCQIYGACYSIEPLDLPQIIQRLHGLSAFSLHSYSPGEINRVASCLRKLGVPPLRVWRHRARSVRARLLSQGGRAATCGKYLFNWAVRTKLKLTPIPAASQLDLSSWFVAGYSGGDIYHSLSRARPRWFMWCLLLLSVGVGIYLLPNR

Genome polyprotein, sequence (P03300 1749-2209 limits assumed): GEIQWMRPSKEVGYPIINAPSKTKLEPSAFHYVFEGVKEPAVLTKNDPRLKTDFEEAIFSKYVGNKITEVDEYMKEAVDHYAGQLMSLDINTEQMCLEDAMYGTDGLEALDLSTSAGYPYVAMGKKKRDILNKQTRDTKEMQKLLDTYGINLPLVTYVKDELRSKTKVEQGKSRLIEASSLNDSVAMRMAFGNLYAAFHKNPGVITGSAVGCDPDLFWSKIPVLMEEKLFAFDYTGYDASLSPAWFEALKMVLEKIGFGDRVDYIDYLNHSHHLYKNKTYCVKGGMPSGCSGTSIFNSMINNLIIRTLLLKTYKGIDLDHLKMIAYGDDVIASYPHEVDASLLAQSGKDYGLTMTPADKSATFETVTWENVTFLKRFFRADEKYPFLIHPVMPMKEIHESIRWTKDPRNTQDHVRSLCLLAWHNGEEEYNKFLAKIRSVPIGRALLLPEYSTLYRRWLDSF
RNA-directed RNA polymerase, sequence (O39930 whole entry): as the sequence (O39930 1-591) above

SMILES | IC50 [1] | EC50 [2] | IC50 [3] | inhibition [4]
O=C(O)c1ccc2[nH]c(-c3ccccn3)nc2c1 | > 500 µM | – | – | –
O=C(O)c1ccc2c(c1)nc(-c1ccc(C(=O)O)s1)n2C1CCCCC1 | > 30 µM | – | – | –
O=C(O)c1ccc2c(c1)nc(-c1ccccn1)n2C1CCCCC1 | 4.3 µM | > 100 µM | > 500 µM | –
O=C(O)c1ccc2c(c1)nc(-c1ccc(CO)o1)n2C1CCCCC1 | > 30 µM | – | – | –
O=C(O)c1ccc2c(c1)nc(-c1ccncc1)n2C1CCCCC1 | 17 µM | – | > 500 µM | –
O=C(O)c1ccc2c(c1)ncn2C1CCCCC1 | 186 µM | – | – | –
CCc1ccc(-c2nc3cc(C(=O)O)ccc3n2C2CCCCC2)s1 | > 30 µM | – | – | –
CCC(CC)n1c(-c2ccccn2)nc2cc(C(=O)O)ccc21 | 139 µM | – | – | –
COc1ccc(CCNC(=O)c2ccc3c(c2)nc(-c2ccccn2)n3C2CCCCC2)cc1OC | 12 µM | – | > 500 µM | –
Cc1cccc(-c2nc3cc(C(=O)O)ccc3n2C2CCCCC2)n1 | > 30 µM | – | – | –
CC1CCCCC1n1c(-c2ccccn2)nc2cc(C(=O)O)ccc21 (centres undefined) | 13 µM | – | > 500 µM | –
O=C(O)c1ccc2c(c1)nc(-c1ccc(-c3ccc(Cl)cc3)o1)n2C1CCCCC1 | > 30 µM | – | – | –
Cc1[nH]cnc1-c1nc2cc(C(=O)O)ccc2n1C1CCCCC1 | > 30 µM | – | – | –
COc1ccc(CNC(=O)c2ccc3c(c2)nc(-c2ccccn2)n3C2CCCCC2)cc1OC | 7.1 µM | – | > 500 µM | –
Cn1cccc1-c1nc2cc(C(=O)O)ccc2n1C1CCCCC1 | 1.8 µM | – | > 500 µM | –
CC1CCC(n2c(-c3ccccn3)nc3cc(C(=O)O)ccc32)CC1 (centres undefined) | 50 µM | – | – | –
CN(C)CCCNC(=O)COc1ccc(-c2nc3cc(C(=O)O)ccc3n2C2CCCCC2)cc1 | 13 µM | – | – | –
COc1ccc(NC(=O)c2ccc3c(c2)nc(-c2ccccn2)n3C2CCCCC2)cc1OC | – | – | – | 30%
O=C(O)c1ccc2c(c1)nc(-c1nccs1)n2C1CCCCC1 | 4.6 µM | – | > 500 µM | –
O=C(O)c1ccc2c(c1)nc(-c1ncc[nH]1)n2C1CCCCC1 | 10 µM | – | > 250 µM | –
O=C(O)c1ccc2c(c1)nc(-c1ccc[nH]1)n2C1CCCCC1 | 5.9 µM | – | > 500 µM | –
O=C(O)c1ccc2c(c1)nc(C(=O)c1ccccc1)n2C1CCCCC1 | 44 µM | – | – | –
O=C(O)c1ccc2c(c1)nc(-c1ccco1)n2C1CCCCC1 | 3.7 µM | – | > 500 µM | –
O=C(O)c1ccc2c(c1)nc(-c1ccc3ccccc3n1)n2C1CCCCC1 | > 30 µM | – | – | –

SMILES | IC50 [1] | EC50 [2] | IC50 [3] | inhibition [4]
CCOC(=O)c1nc2cc(C(=O)O)ccc2n1C1CCCCC1 | 62 µM | – | – | –
O=C(O)c1ccc2c(c1)nc(-c1ccccc1)n2C1CCCCC1 | 8.6 µM | – | 250 µM | –
Cc1c(-c2nc3cc(C(=O)O)ccc3n2C2CCCCC2)[nH]c2ccccc12 | > 30 µM | – | – | –
CNC(=O)c1ccc2c(c1)nc(-c1ccccn1)n2C1CCCCC1 | 28 µM | – | – | –
CCc1ccc(-c2nc3cc(C(=O)O)ccc3n2C2CCCCC2)o1 | > 30 µM | – | – | –
Cc1cc(-c2nc3cc(C(=O)O)ccc3n2C2CCCCC2)oc1C | > 30 µM | – | – | –
O=C(O)c1ccc2c(c1)nc(-c1ccc(C(=O)O)o1)n2C1CCCCC1 | > 30 µM | – | – | –
O=C(O)c1ccc2c(c1)nc(-c1cc3ccccc3o1)n2C1CCCCC1 | 58 µM | – | – | –
CC(C)=Cc1nc2cc(C(=O)O)ccc2n1C1CCCCC1 | 19 µM | – | > 500 µM | –
O=C(O)c1ccc2c(c1)nc(-c1ccoc1)n2C1CCCCC1 | 1.6 µM | > 100 µM | > 250 µM | –
O=C(O)c1ccc2c(c1)nc(-c1cccnc1)n2C1CCCCC1 | 28 µM | – | > 250 µM | –
Cc1cc(C)c(-c2nc3cc(C(=O)O)ccc3n2C2CCCCC2)c(C)c1 | 120 µM | – | – | –
CC(C)n1c(-c2ccccn2)nc2cc(C(=O)O)ccc21 | 408 µM | – | – | –
NC(=O)c1ccc2c(c1)nc(-c1ccccn1)n2C1CCCCC1 | 27 µM | – | – | –
O=C(O)c1ccc2c(c1)nc(C1CCCCC1)n2C1CCCCC1 | 20 µM | – | – | –
O=C(O)c1ccc2c(c1)nc(-c1ccc(Br)o1)n2C1CCCCC1 | > 30 µM | – | – | –
Cc1ccc(-c2nc3cc(C(=O)O)ccc3n2C2CCCCC2)s1 | > 30 µM | – | – | –
O=C(O)c1ccc2c(c1)nc(-c1ccccn1)n2C1CCCC1 | 12 µM | – | > 500 µM | –
O=C(O)c1ccc2c(c1)nc(-c1cccs1)n2C1CCCCC1 | 3.4 µM | > 100 µM | > 250 µM | –
O=C(O)c1ccc2c(c1)nc(-c1ccccn1)n2C1CCC1 | 76 µM | – | – | –
O=C(O)c1ccc2c(c1)nc(-c1ccccn1)n2C1CCCCCC1 | 49 µM | – | – | –
O=C(O)c1ccc2c(c1)nc(-c1ccccn1)n2-c1ccccc1 | 360 µM | – | – | –
O=C(O)c1ccc2c(c1)nc(-c1ccsc1)n2C1CCCCC1 | 6.33 µM | > 100 µM | > 250 µM | –
O=C(O)c1ccc2c(c1)nc(-c1c[nH]nc1-c1ccccc1)n2C1CCCCC1 | > 30 µM | – | – | –
